The NIST ThermoML archive (doi:10.1016/j.jct.2015.09.010)
Numbers after ± are expanded uncertainties.

details: 298.15 K; 101.33 kPa; Liquid; Pycnometric method

In order of falling mass density:
1. CCCCO [butan-1-ol]  806.1 ± 4.8 kg/m3
2. CCCO [propan-1-ol]  799.7 ± 4.8 kg/m3
3. CO [methanol]  786.6 ± 4.8 kg/m3
4. CCO [ethanol]  785.3 ± 4.8 kg/m3
5. CC(C)O [propan-2-ol]  781.1 ± 4.8 kg/m3
6. CC#N [acetonitrile]  777.1 ± 4.8 kg/m3
